Source: patent US12473296B2, “Perk inhibiting compounds” (HiberCell, Inc., priority 2019, dated 2025)

Assays:
PERK = PERK (Homo sapiens (Human), UniProt Q9NZJ5); experiment: PERK cellular assay (TR-FRET, HEK293-EGFP-eIF2α cells, tunicamycin-induced ER stress); type: cell-based; details: tunicamycin 2 hours, read-out: Cellular IC50 (μM) (EIF2a)
In short: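 Cells pre-incubated with inhibitor 30 min at 37 °C, then ER stress induced with […] tunicamycin for 2 h. TR-FRET read on lysates; ratio normalized to DMSO control as percent inhibition over a 10-point, 3-fold dilution series; IC50 from 4-parameter logistic fit.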

[1] = biological target: EIF2AK3 (PERK) catalytic domain (amino acids 536-1116) (Homo sapiens (Human), UniProt Q9NZJ5); experiment: PERK in vitro activity assay (isolated), TR-FRET kinase assay; details: isolated PERK enzyme, 1.5 μM ATP, GFP-eIF2a substrate; read-out: Biochemical IC50
EIF2AK3 (PERK) catalytic domain (amino acids 536-1116), sequence (Q9NZJ5 536-1116): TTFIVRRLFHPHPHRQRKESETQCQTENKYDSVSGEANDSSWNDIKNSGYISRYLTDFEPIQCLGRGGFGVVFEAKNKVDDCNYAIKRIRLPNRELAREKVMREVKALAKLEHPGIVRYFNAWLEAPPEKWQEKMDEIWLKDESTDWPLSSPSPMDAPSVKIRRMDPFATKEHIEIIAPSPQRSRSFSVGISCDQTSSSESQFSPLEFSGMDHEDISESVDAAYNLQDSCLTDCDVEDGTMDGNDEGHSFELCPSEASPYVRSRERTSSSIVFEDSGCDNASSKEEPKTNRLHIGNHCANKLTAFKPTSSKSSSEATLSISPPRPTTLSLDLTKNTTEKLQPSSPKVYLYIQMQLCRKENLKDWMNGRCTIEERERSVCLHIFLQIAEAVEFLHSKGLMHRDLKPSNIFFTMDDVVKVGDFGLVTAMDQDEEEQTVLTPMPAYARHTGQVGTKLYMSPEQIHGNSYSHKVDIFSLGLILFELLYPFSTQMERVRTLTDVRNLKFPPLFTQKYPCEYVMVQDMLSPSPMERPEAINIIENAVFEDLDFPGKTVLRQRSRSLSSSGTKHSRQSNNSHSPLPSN
Excerpt: PERK In Vitro Activity Assay (Isolated):
In vitro Inhibition of PERK Enzyme Activity (isolated) Recombinant human EIF2AK2 (PKR) catalytic domain (amino acids 252-551), EIF2AK3 (PERK) catalytic domain (amino acids 536-1116), GFP-eIF2a substrate, and Terbium-labelled phospho-eIF2a antibody is obtained (Invitrogen, Carlsbad, CA).
Express and purify HIS-SUMO-GCN2 catalytic domain (amino acids 584-1019) from E. coli. Perform TR-FRET kinase assays in the absence or presence of inhibitors in a reaction buffer consisting of 50 mM HEPES, pH 7.5, 10 mM MgCb, 1.0 mM EGTA, and 0.01% Brij-35, and 100-200 nM GFP-eIF2a substrate. […] Add test compound, initiate the reaction by addition of enzyme, and incubate at room temperature for 45 minutes. Stop the reaction by addition of EDTA to a final concentration of 10 mM, add Terbium-labelled phospho-eIF2a antibody at a final concentration of 2 nM, and incubate for 90 minutes. Monitor the resulting fluorescence in an EnVison® Multilabel reader (PerkinElmer, Waltham, MA). Determine TR-FRET ratios and the resulting IC50 values using a 4-parameter nonlinear logistic equation as shown: Y=(A+((B−A)/(1+((C/x)[…])))) where, Y=% specific inhibition, A=Bottom of the curve, B=Top of the curve, C=absolute IC50 (concentration causing 50% inhibition), and D=hill slope.

PERK, sequence (Q9NZJ5 30-1116): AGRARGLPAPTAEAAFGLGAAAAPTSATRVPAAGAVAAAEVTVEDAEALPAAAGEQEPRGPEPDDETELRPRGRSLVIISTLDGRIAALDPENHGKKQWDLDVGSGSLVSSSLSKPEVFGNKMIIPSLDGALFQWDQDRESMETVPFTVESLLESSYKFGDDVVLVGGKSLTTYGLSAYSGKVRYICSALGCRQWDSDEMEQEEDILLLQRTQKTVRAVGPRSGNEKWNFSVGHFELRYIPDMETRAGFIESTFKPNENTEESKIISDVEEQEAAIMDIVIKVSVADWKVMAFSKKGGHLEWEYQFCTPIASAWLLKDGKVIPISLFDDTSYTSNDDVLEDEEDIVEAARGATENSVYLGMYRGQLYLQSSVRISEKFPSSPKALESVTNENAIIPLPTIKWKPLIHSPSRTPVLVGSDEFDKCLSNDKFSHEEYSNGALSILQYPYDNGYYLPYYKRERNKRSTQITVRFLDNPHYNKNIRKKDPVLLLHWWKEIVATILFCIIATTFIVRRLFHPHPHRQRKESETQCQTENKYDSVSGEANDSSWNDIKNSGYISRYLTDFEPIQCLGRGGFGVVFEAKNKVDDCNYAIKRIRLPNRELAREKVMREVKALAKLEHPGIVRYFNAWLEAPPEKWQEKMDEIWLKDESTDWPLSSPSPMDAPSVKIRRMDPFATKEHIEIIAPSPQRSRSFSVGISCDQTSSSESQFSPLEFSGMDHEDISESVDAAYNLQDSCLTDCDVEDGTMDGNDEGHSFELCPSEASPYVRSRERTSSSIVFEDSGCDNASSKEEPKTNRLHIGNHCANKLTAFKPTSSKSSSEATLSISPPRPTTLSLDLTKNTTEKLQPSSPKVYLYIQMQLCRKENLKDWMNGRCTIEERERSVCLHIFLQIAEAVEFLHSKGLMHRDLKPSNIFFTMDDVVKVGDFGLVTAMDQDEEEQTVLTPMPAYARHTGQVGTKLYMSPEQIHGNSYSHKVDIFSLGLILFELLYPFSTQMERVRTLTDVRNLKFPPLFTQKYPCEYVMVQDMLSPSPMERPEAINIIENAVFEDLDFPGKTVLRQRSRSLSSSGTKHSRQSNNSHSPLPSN

Row | SMILES | IC50 (PERK) | IC50 [1]
1 | Cc1cc(NC(=O)C(O)c2cc(F)cc(F)c2)ccc1-c1cnc(N)c(C(=O)O)c1 (centres unmarked) [Example 41, 2-amino-5-(4-(2-(3,5-difluorophenyl)-2-hydroxyacetamido)-2-methylphenyl) nicotinic acid] | > 5 µM | 101 to 250 nM
2 | Cc1cc(NC(=O)C(O)c2cc(F)cc(F)c2)ccc1-c1cnc(N)c(C(=O)NC2CNC2)c1 (centres unmarked) [Example 44, 2-amino-N-(azetidin-3-yl)-5-(4-(2-(3,5-difluorophenyl)-2-hydroxyacetamido)-2-methylphenyl) nicotinamide] | 3 to 4 µM | 1 to 25 nM
3 | Cc1cc(NC(=O)C(O)c2cc(F)cc(F)c2)ccc1-c1cnc(N)c(C(=O)NC2CNC2)c1 (centres unmarked) [Example 45, 2-amino-N-(azetidin-3-yl)-5-(4-(2-(3,5-difluorophenyl)-2-hydroxyacetamido)-2-methylphenyl) nicotinamide] | > 5 µM | 51 to 100 nM
4 | Cc1cc(NC(=O)C(O)c2cc(F)cc(F)c2)ccc1-c1cnc(N)c(C(=O)NC2CN(C)C2)c1 (centres unmarked) [Example 46, 2-amino-5-(4-(2-(3,5-difluorophenyl)-2-hydroxyacetamido)-2-methylphenyl)-N-(1-methylazetidin-3-yl)nicotinamide] | 0.501 to 1 µM | 1 to 25 nM
5 | Cc1cc(NC(=O)C(O)c2cc(F)cc(F)c2)ccc1-c1cnc(N)c(C(=O)NC2CN(C)C2)c1 (centres unmarked) [Example 47, 2-amino-5-(4-(2-(3,5-difluorophenyl)-2-hydroxyacetamido)-2-methylphenyl)-N-(1-methylazetidin-3-yl)nicotinamide] | 1 to 2 µM | 1 to 25 nM
6 | Cc1cc(NC(=O)C(O)c2cc(F)cc(F)c2)ccc1-c1cnc(N)c(C(=O)NCCO)c1 (centres unmarked) [Example 56, 2-amino-5-(4-(2-(3,5-difluorophenyl)-2-hydroxyacetamido)-2-methylphenyl)-N-(2-hydroxyethyl) nicotinamide] | 0.251 to 0.5 µM | 1 to 25 nM
7 | Cc1cc(NC(=O)C(O)c2cc(F)cc(F)c2)ccc1-c1cnc(N)c(C(=O)NCCO)c1 (centres unmarked) [Example 57, 2-amino-5-(4-(2-(3,5-difluorophenyl)-2-hydroxyacetamido)-2-methylphenyl)-N-(2-hydroxyethyl) nicotinamide] | 2 to 3 µM | 101 to 250 nM
8 | Cc1cccc(C(O)C(=O)Nc2ccc(-c3cnc(N)c(C(=O)NC(C)C)c3)c(C)c2)c1 (centres unmarked) [Example 66, 2-amino-5-(4-(2-hydroxy-2-(m-tolyl)acetamido)-2-methylphenyl)-N-isopropylnicotinamide] | 1 to 2 µM | 101 to 250 nM

More lines, now with the values ahead:

Row | IC50 (PERK) | IC50 [1] | SMILES
9 | 0.051 to 0.1 µM | 1 to 25 nM | Cc1cccc(C(O)C(=O)Nc2ccc(-c3cnc(N)c(C(=O)NC(C)C)c3)c(C)c2)c1 (centres unmarked) [Example 67, 2-amino-5-(4-(2-hydroxy-2-(m-tolyl)acetamido)-2-methylphenyl)-N-isopropylnicotinamide]
10 | 0.501 to 1 µM | 101 to 250 nM | Cc1cc(NC(=O)C(O)c2cccc(Cl)c2)ccc1-c1cnc(N)c(C(=O)NC(C)C)c1 (centres unmarked) [Example 68, 2-amino-5-(4-(2-(3-chlorophenyl)-2-hydroxyacetamido)-2-methylphenyl)-N-isopropylnicotinamide]
11 | 0.026 to 0.05 µM | 1 to 25 nM | Cc1cc(NC(=O)C(O)c2cccc(Cl)c2)ccc1-c1cnc(N)c(C(=O)NC(C)C)c1 (centres unmarked) [Example 69, 2-amino-5-(4-(2-(3-chlorophenyl)-2-hydroxyacetamido)-2-methylphenyl)-N-isopropylnicotinamide]
12 | 1 to 2 µM | 251 to 500 nM | Cc1cc(NC(=O)C(O)c2cccc3c2OCC3)ccc1-c1cnc(N)c(C(=O)NC(C)C)c1 (centres unmarked) [Example 74, 2-amino-5-(4-(2-(2,3-dihydrobenzofuran-7-yl)-2-hydroxyacetamido)-2-methylphenyl)-N-isopropylnicotinamide]
13 | 1 to 2 µM | 101 to 250 nM | Cc1cc(NC(=O)C(O)c2cccc3c2OCC3)ccc1-c1cnc(N)c(C(=O)NC(C)C)c1 (centres unmarked) [Example 75, 2-amino-5-(4-(2-(2,3-dihydrobenzofuran-7-yl)-2-hydroxyacetamido)-2-methylphenyl)-N-isopropylnicotinamide]
